The target of one experiment is T1, b1b2 domain of NRP-1 (Homo sapiens, UniProt O14786).
T1 sequence (O14786 273-586 limits assumed): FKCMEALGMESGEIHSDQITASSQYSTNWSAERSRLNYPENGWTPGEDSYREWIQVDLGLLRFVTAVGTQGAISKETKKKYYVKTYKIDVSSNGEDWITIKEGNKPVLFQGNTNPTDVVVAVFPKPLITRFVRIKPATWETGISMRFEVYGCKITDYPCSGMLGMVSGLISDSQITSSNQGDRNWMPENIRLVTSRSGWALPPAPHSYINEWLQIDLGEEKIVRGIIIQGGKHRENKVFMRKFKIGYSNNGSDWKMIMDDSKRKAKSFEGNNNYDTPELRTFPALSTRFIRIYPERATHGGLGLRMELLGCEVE
Nature of the experiment: Fluorescence polarization displacement of FAM-RPARPAR from NRP-1. It counts as binding. Particulars: specificity assay, up to 100 μM. As to the method:
Results of the high-throughput screen were confirmed in dose response tests. 8.25 μM to 100 μM dilutions of the compounds that displaced FAM-peptide from p32 were used in competition with FAM-peptide as described in previous section. Specificity of the hit compounds was verified by examining their binding to a different protein, b1b2 domain of NRP-1 (Vander Kooi et al., Proc. Natl. Acad. Sci. U.S.A., 10.1073/pnas.0700043104). Experimental method for NRP-1 b1b2 was developed and validated similarly to p32, using FAM-RPARPAR peptide as a known peptide ligand for NRP-1. The displacement of FAM-RPARPAR from NRP-1 protein by the hit compounds was studied in 384-well format, as described above.

The next experiment concerns the target T2, p32 protein (Homo sapiens, UniProt Q07021).
T2 construct: 6xHis; host or cells: Rosetta-gami-2 cells (Novagen); an E. coli strain by own knowledge
T2 sequence (Q07021 74-282): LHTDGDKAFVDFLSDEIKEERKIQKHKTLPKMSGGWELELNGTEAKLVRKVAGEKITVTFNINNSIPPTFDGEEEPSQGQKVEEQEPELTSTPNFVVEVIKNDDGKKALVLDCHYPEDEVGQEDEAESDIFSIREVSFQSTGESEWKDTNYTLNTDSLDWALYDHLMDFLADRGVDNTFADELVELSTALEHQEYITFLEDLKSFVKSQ
Put plainly: Fluorescence polarization assay: displacement of FAM-TT1 from p32 (HTS, dose response, unlabeled peptide competition). It counts as binding. As to the method:
Fluorescence polarization (FP)-based assay was used for solution-based screening of compound libraries for p32 binding compounds. […] In FP assay, peptide conjugated with a fluorescent label (fluorescein-AM, FAM) is excited with polarized light. […] 6×-His-Tagged p^32 was expressed in Rosetta-gami-2 cells (Novagen). The protein was purified by IMAC using HIS-select resin (Sigma) with an imidizole gradient from 20-300 mM and eluted fractions were analyzed on analytical SDS-PAGE. […] Fluorescence polarization is given as milli-polarization (mP) value, which is obtained from equation (1):
mP=1000*(S−P)/(S+P), (Eq. 1)
The assay was initially set up in 20 μl well volume in 384 well plate (Corning Life Sciences), and measurements were carried out using PheraStar FS plate reader (BMG LABTECH, Ortenberg, Germany) in quadruplicate. Peptide and protein stock solutions were diluted to desired concentration with assay buffer (50 mM BIS-TRIS pH 7.4, 0.05% Tween20, 1 mM DTT). FAM-labeled peptides were protected from light during the experiment to avoid photobleaching. Optimal concentration of fluorescein (FAM) labeled-peptides for the assay was determined by measuring the limit of detection (LOD), signal-to-background ratio (S/B), and stability of mP value over series of peptide concentrations. In the binding assay, the concentration of FAM-peptide was kept constant, and the FP was measured over the range of target protein concentrations. The peptide dissociation constant (KD) was obtained by fitting the binding curve into Michaelis-Menten kinetics in GraphPad Prism-software (GraphPad Software, Inc., CA, USA).
FAM-TT-1 and p32 solutions are prepared just before experiment, and stored on ice during the screen; the peptide is shielded from light. • 1. […] Dispense 1.5 μL of assay buffer (50 mM BIS-TRIS pH 7.4, 0.05% Tween 20, 1 mM DTT) into columns 1-4 • 3. […] Dispense 37.5 nL of compounds (2 mM) into columns 5-44 • 5. Spin plate • 6. Incubate 20 min • 7. Dispense 1.5 μL FAM-TT-1 peptide (20 nM) into all columns • 8. Shake plate and spin plate • 9. Incubate 25 min • 10. Read plate on PheraStar FS
Chemical library of ˜50,000 compounds from ChemBridge (San Diego, Calif.) was screened in High-Throughput Screening Facility at Conrad Prebys Center for Chemical Genomics (Sanford-Burnham Medical Research Institute, La Jolla, Calif.). […] Peptide and protein were diluted immediately prior to screening, kept on ice during screening, and FAM-peptide was protected from light throughout the experiment. […]

For a further experiment, the system named is atherosclerotic plaques. Put plainly: Plaque homing of FAM-labeled #008-NWs in atherosclerotic mouse. The following applies: 1 mg/ml, 200 μl, IV, two hours circulation; listed as #008. It counts as in vivo.

“Also recorded” adds a separate entry of the source.

What is called inhibition is the percentage by which the read-out fell short of the control. For `Cc1cnccc1NCCN` [Compound 4014008, N-(3-methylpyridin-4-yl)ethane-1,2-diamine], the “effect on RPARPAR peptide binding to NRP-1” value at b1b2 domain of NRP-1 was “no effect”. On p32 protein (high-throughput screen hits, inhibition of TT1-p32 interaction, library compounds 25 μM (Table 1), b410 says 100 μM), the inhibition at 25 µM came to 29.9%. Besides, the inhibition at 100 µM on p32 protein (highest concentration used, 100 μM, read-out: inhibition of FAM-TT1 binding to p32 in FP assay) came to 75%. For the same molecule, the “nanoparticle homing/accumulation in plaques” value in the experiment with atherosclerotic plaques is listed as “specifically home; also recorded: directs nanoparticle accumulation in plaques”.

The values are drawn from US20200268832A1, “COMPOSITIONS FOR DELIVERY TO AND TREATMENT OF ATHEROSCLEROTIC PLAQUES” (Sanford Burnham Prebys Medical Discovery Institute, priority 2015, published 2020).
